PMC10252594 (Cancers, 2023)
Marks after values point to notes of the source that are not given here.

What was measured:
[1] = tested on: androgen-dependent and androgen-independent PC cell lines; settings: cited from earlier work
LAPC-4 xenografts = tested on: LAPC-4 xenografts
Source text: The xenograft experiment was approved by the Université Laval Animal Care Committee (Comité de Protection des Animaux de l’Université Laval, Québec, QC, Canada) and carried out in an animal facility approved by the Canadian Council on Animal Care (CCAC). Homozygous male Balb/c athymic nude mice (~42 days old, weighing approximately 28 g) were obtained from Charles River Inc. (Saint-Constant, QC, Canada) and housed (4 to 5) in vinyl micro-isolated ventilated cages equipped with air lids. Cages were kept in laminar airflow hoods and maintained in pathogen-limiting conditions. The animals were housed under a controlled environment at 22 ± 3 °C with 50 ± 20% relative humidity and light set at 12 h/day (light on at 07:15) during the acclimatization and study periods. Sterile water and rodent food (Rodent Diet #T.2018.15, Harlan Teklad, Madison, WI, USA) were provided ad libitum.
After an acclimatization period of 5 days, the mice were inoculated into both flanks by subcutaneous (SC) injection of 4 × 10^6 LAPC-4 cells (Passage 14) in 0.1 mL of growth medium containing 50% Matrigel (BD Biosciences, Mississauga, ON, Canada) via a 2.5-cm long 22-gauge needle. Two weeks later, mice that developed tumors were randomized according to tumor volume, divided into […] groups (Gr-1 to Gr-8), and treated over a period of 28 days. A bilateral orchiectomy was performed under isoflurane-induced anesthesia for Gr-1 but not for Gr-2 to Gr-8. Both Gr-1 (CTX control (CTL), 9 mice, 16 tumors) and Gr-2 (intact CTL, 9 mice, 18 tumors) were treated with 0.1 mL of the vehicle alone (8% DMSO/92% propylene glycol (PG) administered by gavage (PO). Gr-3 (30 mg/kg/PO, 10 mice, 19 tumors) received 0.843 mg of RM-581. Gr-4 (10 mg/kg/PO, 10 mice, 20 tumors) received 0.281 mg of RM-581. Gr-5 (3 mg/kg/PO, 10 mice, 18 tumors) received 0.084 mg of RM-581. Gr-6 (60 mg/kg/SC, 9 mice, 18 tumors) received 1.686 mg of abiraterone. Gr-7 (60 mg/kg/PO, 9 mice, 17 tumors) received 1.686 mg of abiraterone acetate. Gr-8 (4 mg/kg/IP, 9 mice, 17 tumors) received 0.112 mg of docetaxel.
RM-581 and abiraterone acetate were administered six days a week PO; abiraterone was administered six days a week SC; and docetaxel was administered twice a week by intraperitoneal (IP) injection. RM-581 was first dissolved in DMSO, and thereafter we added PG to obtain the appropriate concentration in the vehicle fluid (8% DMSO/92% PG). Abiraterone acetate and abiraterone were dissolved in 0.3% hydroxypropyl cellulose in saline (0.9% NaCl), while docetaxel was first dissolved in DMSO, and thereafter we added phosphate-buffered saline (PBS) to obtain the proper concentration in the carrier fluid (0.5% DMSO/99.5% PBS). All solutions were prepared one day prior to the initiation of treatment and stored at 4 °C under constant agitation.
The mice were weighed at the start and end of the protocol. Tumor area (mm^2) was calculated twice a week using two perpendicular diameters (L and W), which were recorded using a caliper, and the formula L/2 × W/2 × π. The area measured on the first day of treatment was fixed at 100%. At the end of the studies and 3 h after the last treatment, the mice were terminally anesthetized, and their final body weights were measured. Tumors, liver, kidney, and total prostate were collected from mice during necropsy, while blood was collected by cardiac puncture. Tissues and plasma were immediately frozen at −80 °C until analysis.

LAPC-4 cells [2] = experiment: LAPC-4 cell viability proliferation and combination index assays (MTS, 6 days); assay type: cell-based, human; settings: LAPC-4, six days
Method: LAPC-4 cells (1 × 10^4 cells/well) were seeded in triplicate in 96-well plates in IMDM (Iscove’s modified Dulbecco’s medium) (90 μL) supplemented (v/v) with 5% fetal FBS, 1% L-glutamine, 1% insulin, and 1% penicillin/streptomycin. The cells were incubated at 37 °C in a 5% CO2 humidified atmosphere for 24 h. […] After 6 days of incubation, the cell proliferation was determined by adding 10 µL of MTS followed by incubation at 37 °C for 4 h. Plates were then analyzed at 490 nm using a Tecan M-200 microplate reader (Männedorf, Switzerland). Using GraphPad Prism 7 software, the IC50 values were calculated. The values represent the average of two independent experiments performed in triplicate. According to the Chou–Talalay method and using the following formula, the CI (combination) was calculated. CI=(D)1/(DX)1+(D)2/(DX)2
Denominators (DX)l and (DX)2 are the doses of individual drugs required to achieve a given effect level, and numerators (D)1 and (D)2 are the concentrations of each drug present in combination to trigger the same effect level. When the drugs interact additively, CI = 1, but a CI < 1 indicates a synergistic interaction, and a CI > 1 indicates an antagonistic effect.

LAPC-4 cells [3] = experiment: Gene expression study by qPCR; assay type: cell-based, human; settings: RM-581 5 µM or atorvastatin 10 µM, CTL fixed at 1.0
Method: LAPC-4 cells (3 × 10^5) were treated with RM-581 (1, 2, and 5 µM) at different times (6, 18, 24, and 36 h) and the expression of various genes was determined as previously reported. Primer sequences used for the analysis of each gene are reported in Table S3 (Supplementary Materials).

LAPC-4 cells [4] = experiment: Total cholesterol in LAPC-4 cells (kit); assay type: cell-based, human; settings: 18, 36, or 72 h; RM-581 2 μM or atorvastatin 10 μM
Method: A cholesterol quantification kit provided by Sigma-Aldrich (Catalog Number MAK043) was used following the manufacturer’s instructions to determine the concentration of total cholesterol, free cholesterol, and cholesteryl ester in samples. The cholesterol contents were measured in samples from two different protocols. […] Secondly, in tumor, liver, and plasma obtained at the end of the LAPC-4 xenograft experiment (control group and the group treated with RM-581 at 10 mg/kg/PO).

PC-3 xenograft = tested on: PC-3 xenograft; parameters: method as in PMID 34681843; settings: PC-3 xenograft, 4 mg/kg IP; cited from earlier work
LNCaP (AR+) cells = tested on: LNCaP (AR+) cells; parameters: method as in earlier work; settings: ref 52 Furuya et al.; cited from earlier work
PC-3 (AR−) cells = tested on: PC-3 (AR−) cells; parameters: method as in earlier work; settings: ref 52 Furuya et al.; cited from earlier work

CC(=O)O[C@H]1CC[C@@]2(C)C(=CC[C@@H]3[C@@H]2CC[C@]2(C)C(c4cccnc4)=CC[C@@H]32)C1 [abiraterone acetate, reference compound]
IC50 [1]: > 10 µM | effect on tumor compared to intact group (LAPC-4 xenografts; 60 mg/kg PO, day 28): no longer significant

C[C@]12CC[C@H](O)CC1=CC[C@@H]1[C@@H]2CC[C@]2(C)C(c3cccnc3)=CC[C@@H]12 [abiraterone, reference compound]
day of significantly different effect vs intact control (LAPC-4 xenografts; 60 mg/kg SC): 18 days | tumor reduction compared to intact control group (LAPC-4 xenografts; 60 mg/kg SC, 6 days a week, day 28): 40% | IC50 (LAPC-4 cells [2]; Homo sapiens, LAPC4, 144 h, single drugs and 1:1 combinations, read-out: IC50 (Figure 2B)): 11.5 µM

CC(C)c1c(C(=O)Nc2ccccc2)c(-c2ccccc2)c(-c2ccc(F)cc2)n1CC[C@@H](O)C[C@@H](O)CC(=O)O [atorvastatin, reference compound]
ACAT1 mRNA expression (LAPC-4 cells [3]; 6 h): 1.0 | ACLY mRNA expression (LAPC-4 cells [3]; 6 h): 1.0 | FASN mRNA expression (LAPC-4 cells [3]; 6 h): 1.2 | HMGCR mRNA expression (LAPC-4 cells [3]; 6 h): 1.4 * | HMGCS1 mRNA expression (LAPC-4 cells [3]; 6 h): 1.3 | LDLR mRNA expression (LAPC-4 cells [3]; 6 h): 1.0 | MVD mRNA expression (LAPC-4 cells [3]; 6 h): 1.6 * | MVK mRNA expression (LAPC-4 cells [3]; 6 h): 1.5 | SCD1 mRNA expression (LAPC-4 cells [3]; 6 h): 1.4 | ACAT1 mRNA expression (LAPC-4 cells [3]; 18 h): 1.0 | ACLY mRNA expression (LAPC-4 cells [3]; 18 h): 1.2 | FASN mRNA expression (LAPC-4 cells [3]; 18 h): 1.3 | HMGCR mRNA expression (LAPC-4 cells [3]; 18 h): 1.8 * | HMGCS1 mRNA expression (LAPC-4 cells [3]; 18 h): 3.5 * | LDLR mRNA expression (LAPC-4 cells [3]; 18 h): 1.8 * | MVD mRNA expression (LAPC-4 cells [3]; 18 h): 2.6 * | MVK mRNA expression (LAPC-4 cells [3]; 18 h): 2.0 * | SCD1 mRNA expression (LAPC-4 cells [3]; 18 h): 1.6 * | ACAT1 mRNA expression (LAPC-4 cells [3]; 24 h): 1.0 | ACLY mRNA expression (LAPC-4 cells [3]; 24 h): 1.9 * | FASN mRNA expression (LAPC-4 cells [3]; 24 h): 1.7 * | HMGCR mRNA expression (LAPC-4 cells [3]; 24 h): 2.6 * | HMGCS1 mRNA expression (LAPC-4 cells [3]; 24 h): 2.7 * | LDLR mRNA expression (LAPC-4 cells [3]; 24 h): 1.8 * | MVD mRNA expression (LAPC-4 cells [3]; 24 h): 3.5 * | MVK mRNA expression (LAPC-4 cells [3]; 24 h): 2.5 * | SCD1 mRNA expression (LAPC-4 cells [3]; 24 h): 2.6 * | ACAT1 mRNA expression (LAPC-4 cells [3]; 36 h): 1.1 | ACLY mRNA expression (LAPC-4 cells [3]; 36 h): 2.2 * | FASN mRNA expression (LAPC-4 cells [3]; 36 h): 1.8 * | HMGCR mRNA expression (LAPC-4 cells [3]; 36 h): 3.5 * | HMGCS1 mRNA expression (LAPC-4 cells [3]; 36 h): 2.0 * | LDLR mRNA expression (LAPC-4 cells [3]; 36 h): 2.5 * | MVD mRNA expression (LAPC-4 cells [3]; 36 h): 4.0 * | MVK mRNA expression (LAPC-4 cells [3]; 36 h): 2.5 * | SCD1 mRNA expression (LAPC-4 cells [3]; 36 h): 4.5 * | Total cholesterol in LAPC-4 cells vs untreated cells (LAPC-4 cells [4]): did not show a significant difference

CC(=O)O[C@@]12CO[C@@H]1C[C@H](O)[C@@]1(C)C(=O)[C@H](O)C3=C(C)[C@@H](OC(=O)[C@H](O)[C@@H](NC(=O)OC(C)(C)C)c4ccccc4)C[C@@](O)([C@@H](OC(=O)c4ccccc4)[C@H]21)C3(C)C [docetaxel, reference compound]
effect on tumor growth (LAPC-4 xenografts; 4 mg/kg IP twice a week): no significant effect | block of tumor growth (PC-3 xenograft): 35% | cell growth plateau (LAPC-4 cells [2]; between 0.01 and 10 µM): around 25%

CCC(C)(C)C(=O)O[C@H]1C[C@@H](C)C=C2C=C[C@H](C)[C@H](CC[C@@H]3C[C@@H](O)CC(=O)O3)[C@H]21 [simvastatin]
LDLR expression (LNCaP (AR+) cells): increased | intracellular cholesterol ratio (LNCaP (AR+) cells): without affecting | LDLR expression (PC-3 (AR−) cells): decreased | intracellular cholesterol ratio (PC-3 (AR−) cells): decreased
